# Patent publication US8535942B2, “Glypican-3 (GPC3)-derived tumor rejection antigenic peptides useful for HLA-A2-positive patients and pharmaceutical comprising the same” (Oncotherapy Science, Inc., priority 2005, dated 2013)
# Entries after “also recorded” stand apart in the source; their conditions may differ. No end group written: not given here.
# Tested on: SK-Hep-1/GPC3 cells
# Test: Cytotoxicity test of peptide-induced killer T cells (calcein AM, Terascan VP)
# Type: cell-based, human
# Conditions: killer T cells induced with peptide-loaded dendritic cells; targets SK-Hep-1/GPC3 vs SK-Hep-1; E/T ratio 20:1
# Experimental: Informed consent was obtained from HLA-A2-positive hepatocellular carcinoma patients, who were in therapy at Gastroenterological Surgery, Kumamoto University School of Medicine, and at Hospital East, the National Cancer Center. Thereafter, 30 ml of blood sample was obtained from individual patients, and peripheral blood mononuclear cells were then isolated using Ficoll-Conray density-gradient centrifugation method according to the previously reported method (Nakatsura, T et al., Eur. J. Immunol. 32, 826-836 (2002)).
# From the isolated peripheral blood mononuclear cells, killer T cells were induced by the previously reported method (Monji, M et al., Clin Cancer Res 10, 6047-6057, 2004). First, CD8-positive cells and CD14-positive cells were separated from the peripheral blood mononuclear cells using MACS. The CD14-positive cells were cultured in the presence of GM-CSF (100 ng/ml) and IL-4 (20 ng/ml) for 5 days, so that differentiation of dendritic cells was induced. Thereafter, TNF-α (20 ng/ml) was added thereto for maturation. On the 7th day, each GPC3 peptide (10 μM) was added thereto, and co-culture with CD8-positive cells was then carried out. This antigen stimulation with autologous CD14-positive cell-derived dendritic cells was repeated 3 or 4 times every week, so that peptide-specific killer T cells were induced. During the induction, half a medium was exchanged with a fresh one every two days, and IL-2 was added thereto in a concentration of 10 U/ml.
# The cytotoxic activity of killer T cells was evaluated by a cytotoxic test using Terascan VP. First, target cells were fluorescently labeled with a calcein AM staining solution at 37° C. for 30 minutes. Such cells were co-cultured with killer T cells on a Coster 96-well half area plate, and fluorescently labeled cells were then detected over time, thereby measuring the degree of cytotoxicity. The analysis was carried out using cytotoxicity test computing software CalCT-961 of MINERVA TECH, which was used in a fluorescence method. An experiment was carried out at an E/T ratio of 20:1. […]
row,Sequence,GPC3-specific cytotoxic activity
1,"YILGSDINV [GPC3 155-163, YILGSDINV]",confirmed; also recorded: exhibited strong cytotoxic activity
2,"FVGEFFTDV [GPC3 144-152, FVGEFFTDV]",confirmed; also recorded: exhibited strong cytotoxic activity
3,"RLQPGLKWV [GPC3 44-52, RLQPGLKWV]",confirmed; also recorded: exhibited strong cytotoxic activity
